Data: US12336981B2, “Compounds and compositions for the inhibition of NAMPT” (Valo Health, Inc., priority 2010, dated 2025)
Where two headings read alike, the source gives them in different places.

Columns and labels:
A2780 cells = assay: In-vitro cell proliferation assay (SRB), A2780 cells; format: cell-based; conditions: Homo sapiens, A2780, 72 h, A2780 cells, 72 hours, read-out: A2780 IC50
Procedure, shortened: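 Read-out is SRB absorbance at 570 nm on TCA-fixed cells after 72 hours of compound treatment at 37° C. in 5% CO2. Background from a media-only plate is subtracted, and % inhibition is interpolated between two tested concentrations.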

NAMPT = biological target: T1, NAMPT (Homo sapiens, UniProt P43490); assay: Biochemical inhibition assay: NAMPT enzymatic reaction, NMN quantified by mass spectrometry; conditions: read-out: Biochem IC50
T1 construct: His tag; host or cells: E. coli
Procedure, shortened: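 Inhibition of E. coli-expressed His-tagged human NAMPT, measured as NMN formation by mass spectrometry after a 30 min room-temperature reaction containing 1 μM NAM, 100 μM PRPP and 2.5 mM ATP.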

T1 sequence (P43490 whole entry): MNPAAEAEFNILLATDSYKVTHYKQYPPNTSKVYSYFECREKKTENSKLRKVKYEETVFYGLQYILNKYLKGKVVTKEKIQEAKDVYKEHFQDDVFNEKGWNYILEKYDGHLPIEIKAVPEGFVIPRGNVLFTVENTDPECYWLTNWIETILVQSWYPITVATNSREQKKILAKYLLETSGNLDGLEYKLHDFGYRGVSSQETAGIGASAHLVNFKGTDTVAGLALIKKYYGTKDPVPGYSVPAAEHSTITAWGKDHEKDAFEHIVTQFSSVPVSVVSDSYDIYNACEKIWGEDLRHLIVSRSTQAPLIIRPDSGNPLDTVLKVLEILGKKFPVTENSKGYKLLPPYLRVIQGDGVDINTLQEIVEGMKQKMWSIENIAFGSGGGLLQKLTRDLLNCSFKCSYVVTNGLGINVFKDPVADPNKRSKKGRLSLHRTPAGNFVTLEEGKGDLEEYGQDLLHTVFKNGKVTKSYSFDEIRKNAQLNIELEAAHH

Compound | IC50 (A2780 cells; SRB) [nM] | IC50 (NAMPT; NAMPT enzymatic assay) [nM] | IC50 (A2780 cells; SRB assay) [nM] | IC50 (NAMPT; NAMPT enzymatic reaction) [nM]
O=C(NCc1ccc(S(=O)(=O)c2cnc3ccc(Cl)cn23)cc1)c1cnc2[nH]ncc2c1 [N-[(4-{6-chloroimidazo[1,2-a]pyridine-3-sulfonyl}phenyl)methyl]-1H-pyrazolo[3,4-b]pyridine-5-carboxamide] | 0.8 | 3.3 |  | 
O=C(NCc1ccc(S(=O)(=O)Nc2cccc3c(=O)occc23)cc1)c1cc2cnccc2[nH]1 [N-({4-[(1-oxo-1H-isochromen-5-yl)sulfamoyl]phenyl}methyl)-1H-pyrrolo[3,2-c]pyridine-2-carboxamide] |  |  | 2270 | 8
COc1cc(F)c(F)cc1S(=O)(=O)c1ccc(CNC(=O)c2cc3cnccc3[nH]2)cc1 [N-({4-[(4,5-difluoro-2-methoxybenzene)sulfonyl]phenyl}methyl)-1H-pyrrolo[3,2-c]pyridine-2-carboxamide] |  |  | 6 | 14
CC(=O)c1cccc(S(=O)(=O)c2ccc(CNC(=O)c3cnc4nccn4c3)cc2)c1 | 10.5 |  |  | 1.8
O=C(NCc1ccc(S(=O)(=O)c2cc(F)ccc2CO)cc1)c1cnc2nccn2c1 | 100 to 1000 | 12.9 |  | 
CCCOc1ccc(S(=O)(=O)c2ccc(CNC(=O)c3cnc4[nH]ncc4c3)cc2)cc1Cl [N-({4-[(3-chloro-4-propoxybenzene)sulfonyl]phenyl}methyl)-1H-pyrazolo[3,4-b]pyridine-5-carboxamide] | 9.58 |  |  | 7.9
O=C(NCc1ccc(S(=O)(=O)c2ccccc2C(F)(F)F)cc1)c1cc2ccncc2s1 [N-[(4-{[2-(trifluoromethyl)benzene]sulfonyl}phenyl)methyl]thieno[2,3-c]pyridine-2-carboxamide] |  |  | 26 | 13
Cc1cc(C)c(S(=O)(=O)c2ccc(CNC(=O)c3cc4ccncc4o3)cc2)c(C)c1 | 100 to 1000 |  |  | 59.2
CCOc1ccc(Cl)cc1S(=O)(=O)c1ccc(CNC(=O)c2cnc3nccn3c2)cc1 | 3.3 |  |  | 1.9
COc1ccc(S(=O)(=O)c2ccc(CNC(=O)c3cnc4nccn4c3)cc2)c(Cl)c1 | 66.9 |  |  | 6.5
CCOCc1ccccc1S(=O)(=O)c1ccc(CNC(=O)c2cc3cnccc3[nH]2)cc1 | 6.7 | 18.5 |  | 
COc1c(C)cc(S(=O)(=O)c2ccc(CNC(=O)c3cc4ccncc4o3)cc2)cc1C | 1.8 |  |  | 5.6
O=C(NCc1ccc(S(=O)(=O)c2ccc(C(F)(F)F)cn2)cc1)c1cc2ccncc2s1 [N-({4-[5-(trifluoromethyl)pyridine-2-sulfonyl]phenyl}methyl)thieno[2,3-c]pyridine-2-carboxamide] | 100 to 1000 | 23.5 |  | 
COc1ccc(OC)c(S(=O)(=O)c2ccc(CNC(=O)c3cc4ccncc4o3)cc2)c1OC | 66.7 |  |  | 39.9
CCN(CC)C(=O)c1cc(Cl)cc(S(=O)(=O)c2ccc(CNC(=O)c3cc4ccncc4o3)cc2)c1 [N-[(4-{[3-chloro-5-(diethylcarbamoyl)benzene]sulfonyl}phenyl)methyl]furo[2,3-c]pyridine-2-carboxamide] | 1.7 | 8.4 |  | 
COc1cccc(S(=O)(=O)c2ccc(CNC(=O)c3cc4cnccc4[nH]3)cc2)c1 [N-({4-[(3-methoxybenzene)sulfonyl]phenyl}methyl)-1H-pyrrolo[3,2-c]pyridine-2-carboxamide] |  |  | 4 | 7
CC(C)COc1cc(F)cc(S(=O)(=O)c2ccc(CNC(=O)c3ccc4nccn4c3)cc2)c1 | 3 | 11.3 |  | 

Compound | IC50 (A2780 cells; SRB) [nM] | IC50 (NAMPT; NAMPT enzymatic assay) [nM] | IC50 (A2780 cells; SRB assay) [nM] | IC50 (NAMPT; NAMPT enzymatic reaction) [nM]
COc1cc(-n2cccn2)ccc1S(=O)(=O)c1ccc(CNC(=O)c2cc3ccncc3s2)cc1 [N-[(4-{[2-methoxy-4-(1H-pyrazol-1-yl)benzene]sulfonyl}phenyl)methyl]thieno[2,3-c]pyridine-2-carboxamide] |  |  | 2.6 | 5
COc1ccc(S(=O)(=O)c2ccc(CNC(=O)c3cnc4nccn4c3)cc2)c(C(F)(F)F)c1 | 65.7 | 7 |  | 
COc1ccc(S(=O)(=O)c2ccc(CNC(=O)c3cnc4[nH]ncc4c3)cc2)c(Cl)c1 [N-({4-[(2-chloro-4-methoxybenzene)sulfonyl]phenyl}methyl)-1H-pyrazolo[3,4-b]pyridine-5-carboxamide] | 87.7 |  |  | 51.6
COc1ccc(F)cc1NS(=O)(=O)c1ccc(CNC(=O)c2ccc3ncccc3c2)cc1 [N-({4-[(5-fluoro-2-methoxyphenyl)sulfamoyl]phenyl}methyl)quinoline-6-carboxamide] | 1000 to 10000 | 66 |  | 
O=C(NCc1ccc(S(=O)(=O)N2CC3CCC(C2)O3)cc1)c1ccc2nccn2c1 [N-[(4-{8-oxa-3-azabicyclo[3.2.1]octane-3-sulfonyl}phenyl)methyl]imidazo[1,2-a]pyridine-6-carboxamide] |  |  | 3 | 4
CC(C)CNC(=O)c1cccc(S(=O)(=O)c2ccc(CNC(=O)c3cc4ccncc4s3)cc2)c1 [N-{[4-({3-[(2-methylpropyl)carbamoyl]benzene}sulfonyl)phenyl]methyl}thieno[2,3-c]pyridine-2-carboxamide] | 14.5 | 5.2 |  | 
Cc1ccc(F)cc1S(=O)(=O)c1ccc(CNC(=O)c2cc3ccncc3s2)cc1 [N-({4-[(5-fluoro-2-methylbenzene)sulfonyl]phenyl}methyl)thieno[2,3-c]pyridine-2-carboxamide] |  |  | 9.4 | 3
O=C(NCc1ccc(S(=O)(=O)N2CCCCC2)cc1)c1cnc2[nH]ncc2c1 [N-{[4-(piperidine-1-sulfonyl)phenyl]methyl}-1H-pyrazolo[3,4-b]pyridine-5-carboxamide] |  |  | 33 | 17
CCc1ccccc1S(=O)(=O)c1ccc(CNC(=O)c2cnc3[nH]ncc3c2)cc1 [N-({4-[(2-ethylbenzene)sulfonyl]phenyl}methyl)-1H-pyrazolo[3,4-b]pyridine-5-carboxamide] | 13 |  |  | 8.4
CCCCc1ccc(S(=O)(=O)c2ccc(CNC(=O)c3cnc4nccn4c3)cc2)cc1 | 10.7 |  |  | 5.3
O=C(NCc1ccc(S(=O)(=O)c2ccccc2Oc2ccccc2)cc1)c1cnc2nccn2c1 | 100 to 1000 |  |  | 8.5
O=C(NCc1ccc(S(=O)(=O)c2ccccc2)cc1)c1ccc2ncccc2c1 [N-{[4-(benzenesulfonyl)phenyl]methyl}quinoline-6-carboxamide] | > 10000 | 108 |  | 
O=C(NCc1ccc(S(=O)(=O)c2ccccc2CN2CCOCC2)cc1)c1cc2ccncc2s1 [N-[(4-{[2-(morpholin-4-ylmethyl)benzene]sulfonyl}phenyl)methyl]thieno[2,3-c]pyridine-2-carboxamide] |  |  | 3.6 | 13
O=C(NCc1ccc(S(=O)(=O)c2cnc3ccccc3c2)cc1)c1cnc2nccn2c1 [N-{[4-(quinoline-3-sulfonyl)phenyl]methyl}imidazo[1,2-a]pyrimidine-6-carboxamide] | 3.6 | 2.5 |  | 
COc1ccc(Cl)cc1S(=O)(=O)c1ccc(CNC(=O)c2cc3ccncc3s2)cc1 [N-({4-[(5-chloro-2-methoxybenzene)sulfonyl]phenyl}methyl)thieno[2,3-c]pyridine-2-carboxamide] |  |  | 1.3 | 4
CC(=O)c1cccc(S(=O)(=O)c2ccc(CNC(=O)c3cc4ccncc4o3)cc2)c1 [N-({4-[(3-acetylbenzene)sulfonyl]phenyl}methyl)furo[2,3-c]pyridine-2-carboxamide] | 8 |  |  | 17.6
